Counter-ions that a name gives are not always drawn.
Test system: Adjuvant arthritis
Experiment: Adjuvant arthritis in the rat (in vivo study), weight of the paw
Design: species or system rat (male Sprague-Dawley)
Conditions: 10 mg/kg per day cutaneously, 6 days per week, 3 weeks, started 15 days after Mycobacterium tuberculosis injection, right rear paw

Row | SMILES | Adjuvant arthritis, weight of the paw % inhibition (difference in average paw weight of treated arthritic rats relative to reference arthritic rats)
1 | CC(C)OP(=O)(OC(C)C)C(Sc1ccccc1C(=O)O)P(=O)(OC(C)C)OC(C)C [SR 41 452] | 15%
2 | O=P(O)(O)C(CCCCCCSc1ccc(Cl)cc1)P(=O)(O)O [SR 41 959] | 60%
3 | CCCCCCCCCCCCCCCCSC(P(=O)(O)O)P(=O)(O)O [SR 41 453, Monoammonium hexadecylthiomethylene-diphosphonate] | 58%
4 | O=P(O)(O)C(O)(CCCCSc1ccc(Cl)cc1)P(=O)(O)O [SR 42 016] | 48%
5 | O=P(O)(O)C(Sc1nc2ccccc2s1)P(=O)(O)O [SR 41 481, Tri-(tertiarybutylamine) salt of benzothiazol-2-yl-thiomethylene-diphosphonic acid] | 40%
6 | CCCCCCCSC(P(=O)(O)O)P(=O)(O)O [SR 41 552] | 36%
7 | O=P(O)(O)C(O)(CCSc1ccccc1)P(=O)(O)O [SR 42 017] | 49%
8 | O=P(O)(O)C(Sc1ccccn1)P(=O)(O)O [SR 41 179] | 25%
9 | Nc1ccccc1SC(P(=O)(O)O)P(=O)(O)O [SR 41 388] | 42%
10 | O=P(O)(O)C(CCCCSc1ccccn1)P(=O)(O)O [SR 42 099, 5-(pyrid-2-yl-thio)-pentylidene-1,1-diphosphonic acid] | 44%
11 | O=P(O)(O)C(CCCCS)P(=O)(O)O [SR 41 527, Di-(tertiarybutylalmine) salt of 5-mercapto-pentylidene-1,1-diphosphonic acid] | 34%
12 | CC(C)OP(=O)(OC(C)C)C(CCCSc1ccccc1)P(=O)(OC(C)C)OC(C)C [SR 41 341, Tetraisopropyl 4-phenylthio-butylene-1,1-diphosphonate] | 24%
13 | CCCSCCCCCC(O)(P(=O)(O)O)P(=O)(O)O [SR 42 015] | 47%
14 | CSC(P(=O)(O)O)P(=O)(O)O [SR 41 036, Tri-(tertiary butylamine) salt of methylthio-methylene-diphosphonic acid] | 23%
15 | O=P(O)(O)C(Sc1ncccn1)P(=O)(O)O [SR 41 264] | 43%
16 | CCCCCCCCSC(P(=O)(OC(C)C)OC(C)C)P(=O)(OC(C)C)OC(C)C [SR 41 454, Tetraisopropyl n-octylthiomethylene-diphosphonate] | 33%

Row | SMILES | Adjuvant arthritis, weight of the paw % inhibition (difference in average paw weight of treated arthritic rats relative to reference arthritic rats)
17 | O=P(O)(O)C(O)(CCCCSc1ccc(F)cc1)P(=O)(O)O [SR 41 909, Di-(tertiarybutylamine) salt of 5-(4-fluorophenylthio)-1-hydroxy-pentylidene-1,1-diphosphonic acid] | 53%
18 | CN(C)CCSC(P(=O)(O)O)P(=O)(O)O [SR 41 344] | 35%
19 | O=P(O)(O)C(CCCSc1ccccc1)P(=O)(O)O [SR 41 342, Di-(tertiarybutylamine salt) of 4-phenylthio-butylidene-1,1-diphosphonic acid] | 38%
20 | CSCCCCCCCCCCC(O)(P(=O)(O)O)P(=O)(O)O [SR 42 097] | 50%
21 | CCCCCCCCSC(P(=O)(O)O)P(=O)(O)O [SR 41 421] | 55%
22 | O=P(O)(O)C(Sc1cccs1)P(=O)(O)O [SR 41 549, thien-2-yl-thiomethylene-diphosphonic acid] | 34%
23 | CC(C)SC(P(=O)(O)O)P(=O)(O)O [SR 41 100] | 37%
24 | CSCCC(P(=O)(O)O)P(=O)(O)O [SR 41 273, Tertiary butylamine salt of 3-methylthio-propylidene-1,1-diphosphonic acid] | 39%
25 | O=P(O)(O)C(Sc1nc2ccccc2[nH]1)P(=O)(O)O [SR 41 263] | 19%
26 | O=P(O)(O)C(Sc1nc2cc(Cl)ccc2[nH]1)P(=O)(O)O [SR 41 480] | 40%
27 | O=P(O)(O)C(Sc1ccccc1Cl)P(=O)(O)O [SR 41 689] | 31%
28 | O=P(O)(O)C(Sc1ccccc1)P(=O)(O)O [SR 41 482] | 41%
29 | O=P(O)(O)C(O)(CCCSc1ccc(Cl)cc1)P(=O)(O)O [SR 41 903, Di-(tertiarybutylamine) salt of 4-(4-chlorophenylthio)-1-hydroxy-butylidene-1,1-diphosphonic acid] | 55%
30 | CCCCCSCCCC(O)(P(=O)(O)O)P(=O)(O)O [SR 41 961] | 53%
31 | NCCSC(P(=O)(O)O)P(=O)(O)O [SR 41 266] | 29%

Source: patent US4876248A, “Anti-inflammatory products derived from methylene-diphosphonic acid, and process for their preparation” (priority 1982, dated 1989)
